Measurements published in US20240294509A1, “PYRIDAZINONE COMPOUND AS PARP7 INHIBITOR” (Euregen Biopharma Co., Ltd., priority 2021, published 2024).

How the values were obtained:
NCI-H1373 cells = assay: Inhibitory effect on the proliferation of NCI-H1373 cells (CellTiter-Glo); format: cell-based; conditions: Homo sapiens, 144 h, 6 days treatment
Excerpt: 1. Experimental Principle: NCI-H1373 cells are a type of lung adenocarcinoma cells that overexpress PARP7.
2. Experimental Materials: NCI-H1373 cells were obtained from Nanjing Cobioer Biosciences Co., Ltd. CellTiter-Glo® (cell viability chemiluminescent assay reagent) was purchased from Promega (Catalog No. G7571). RPMI-1640 medium was obtained from ATCC (Catalog No. 30-2001). RPMI-1640 medium, penicillin/streptomycin antibiotics were purchased from WISENT. Fetal bovine serum was obtained from Biosera. The Nivo multimode reader was procured from PerkinElmer.
3. Experimental Method: NCI-H1373 cells were seeded in a white 96-well plate with 80 μL of cell suspension per well, containing 3000 NCI-H1373 cells. The cell plate was incubated overnight in a carbon dioxide (CO2) incubator.
The test compounds were serially diluted 5-fold to the 9th concentration, ranging from 2 mmol/L to 5.12 nmol/L, for a duplicate assay. 78 μL of culture medium was added to the intermediate plate, and then, according to the corresponding positions, 2 μL of each gradient-diluted compound was transferred to the intermediate plate. After thorough mixing, 20 μL of the compound solution was transferred to the cell plate. The compound concentration range in the cell plate ranged from 10 μmol/L to 0.0256 nmol/L. The cell plate was incubated in a CO2 incubator for 6 days.
Another cell plate was prepared, and the signal values were read on the day of dosing to obtain the maximum value referred to as Max in the following equation for data analysis. 25 μL of cell viability chemiluminescent assay reagent was added to each well of this cell plate, and it was incubated at room temperature for 10 minutes to stabilize the luminescent signal. Readings were taken using a multimode reader.
After 6 days of treatment, 25 μL of cell viability chemiluminescent assay reagent was added to each well of the cell plate, and it was incubated at room temperature for 10 minutes to stabilize the luminescent signal. Readings were taken using a multimode reader.
The IC50 value was determined by four-parameter curve fitting (obtained by using the “log(inhibitor) vs. response—Variable slope” model in GraphPad Prism).

PARP7 = PARP7 (Homo sapiens (Human), UniProt Q7Z3E1)
Chain of PARP7 (Q7Z3E1 whole entry): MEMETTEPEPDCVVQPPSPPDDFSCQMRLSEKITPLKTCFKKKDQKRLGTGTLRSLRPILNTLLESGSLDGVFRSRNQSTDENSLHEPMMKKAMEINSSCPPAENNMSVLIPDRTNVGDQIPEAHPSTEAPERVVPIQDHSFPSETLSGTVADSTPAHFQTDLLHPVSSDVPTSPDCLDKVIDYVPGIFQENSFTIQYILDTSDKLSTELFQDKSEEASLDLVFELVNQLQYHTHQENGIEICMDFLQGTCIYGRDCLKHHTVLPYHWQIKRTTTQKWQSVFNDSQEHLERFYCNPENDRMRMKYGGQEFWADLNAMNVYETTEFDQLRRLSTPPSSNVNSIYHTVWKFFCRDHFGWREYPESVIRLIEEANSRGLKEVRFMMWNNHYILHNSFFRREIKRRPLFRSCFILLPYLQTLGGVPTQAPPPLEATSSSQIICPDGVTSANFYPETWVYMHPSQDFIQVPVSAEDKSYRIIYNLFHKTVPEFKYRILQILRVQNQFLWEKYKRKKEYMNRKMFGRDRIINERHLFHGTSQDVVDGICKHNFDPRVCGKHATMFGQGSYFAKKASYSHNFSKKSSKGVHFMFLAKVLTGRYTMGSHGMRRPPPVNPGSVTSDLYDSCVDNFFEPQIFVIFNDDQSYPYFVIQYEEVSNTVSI
Experimental: (§5) Experimental Principle: The inhibitory effect of the test substance on the enzymatic activity of PARP1/7 is assessed by using an Enzyme-Linked Immunosorbent Assay (ELISA).
(§6) (1) Pre-coating: Add 100 μL of a PBS buffer (10 mM NaH2PO4, 10 mM Na2HPO4, 150 mM NaCl, pH 7.4) containing 20 g/mL of histone to each well of a 96-well plate, and incubate at 4° C. overnight.
(§7) (3) Add 5 μL of the test substance or solvent to each well.
(§8) (4) Add 20 μL of(PARP1 or PARP7 (50 ng/well), and incubate at 30° C. for 1 hour.
(§9) (5) Add 50 μL of streptavidin-HRP to the reaction mixture, and incubate at 30° C. for 30 minutes.
(§10) (6) Finally, add 100 μL of a citrate buffer containing H2O2 and luminol (0.1 M, pH 5.4), and measure the luminescent signal using a microplate reader (Molecular Devices SpectraMax M5).
(§11) (7) Calculate the inhibition rate of PARP1 or PARP7 enzyme activity as [(control group−treatment group)/control group]×10000. Fit the dose-response data with standard dilutions using Prism GraphPad software and calculate the concentration required to achieve 5000 inhibition of PARP1 or PARP7 enzyme activity (IC50).

PARP1 = PARP1 (Homo sapiens (Human), UniProt P09874)
Chain of PARP1 (P09874 whole entry): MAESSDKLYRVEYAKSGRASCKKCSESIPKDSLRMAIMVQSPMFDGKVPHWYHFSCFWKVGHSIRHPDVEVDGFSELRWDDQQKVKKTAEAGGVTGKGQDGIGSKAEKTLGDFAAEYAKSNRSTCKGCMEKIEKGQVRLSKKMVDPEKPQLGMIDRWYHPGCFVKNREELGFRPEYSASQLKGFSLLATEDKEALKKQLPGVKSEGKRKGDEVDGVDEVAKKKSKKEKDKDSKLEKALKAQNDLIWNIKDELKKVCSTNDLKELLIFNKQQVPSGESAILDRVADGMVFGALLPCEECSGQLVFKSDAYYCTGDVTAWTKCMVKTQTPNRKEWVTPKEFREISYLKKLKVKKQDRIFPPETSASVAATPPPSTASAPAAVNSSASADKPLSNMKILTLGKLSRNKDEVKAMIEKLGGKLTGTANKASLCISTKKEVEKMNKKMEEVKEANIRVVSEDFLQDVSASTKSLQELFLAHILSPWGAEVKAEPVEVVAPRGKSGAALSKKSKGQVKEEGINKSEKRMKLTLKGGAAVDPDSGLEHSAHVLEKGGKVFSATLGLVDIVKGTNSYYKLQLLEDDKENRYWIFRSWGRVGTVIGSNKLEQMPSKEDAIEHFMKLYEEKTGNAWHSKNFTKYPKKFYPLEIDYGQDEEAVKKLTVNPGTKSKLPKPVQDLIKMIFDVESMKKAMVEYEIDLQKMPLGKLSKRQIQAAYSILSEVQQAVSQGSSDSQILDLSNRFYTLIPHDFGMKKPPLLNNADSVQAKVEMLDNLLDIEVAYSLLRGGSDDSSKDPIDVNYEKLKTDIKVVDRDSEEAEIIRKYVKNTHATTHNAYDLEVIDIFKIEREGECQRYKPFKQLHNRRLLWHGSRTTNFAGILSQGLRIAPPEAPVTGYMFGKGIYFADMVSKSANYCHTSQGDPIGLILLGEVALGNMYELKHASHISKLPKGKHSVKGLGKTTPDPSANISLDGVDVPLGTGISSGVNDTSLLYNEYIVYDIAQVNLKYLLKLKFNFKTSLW
Experimental: as §5, §6, §7, §8, §9, §10, §11

[1] = Pharmacokinetic properties in SD rats after single intravenous injection and oral administration; format: in vivo; conditions: SD male rats; for F: oral bioavailability; for AUC(0-inf) / Cmax / clearance / half-life: rat, plasma
Excerpt: 1. Test purpose: to determine the pharmacokinetic characteristics of some of the example compound of the present invention in SD rats after single intravenous injection(IV) and oral administration(PO) by LC-MS/MS method.
2. Test material: the test drug is self-made from the example compounds of the present invention; Positive control compound RBN2397 purchased from Shanghai BioChemPartner Biotechnology Co., Ltd. SD male rats were obtained from the Laboratory Animal Management Department of Shanghai Family Planning Research Institute. Animal production license number (SCXK (Shanghai) 2018-0006).
Preparation of 0.5% methyl cellulose: 5 g of methyl cellulose were weighed and dissolved in 1000 mL of purified water.
Preparation of oral formulation: A required amount of test compound was weighed and dissolved in 0.5% methyl cellulose solution to obtain a suspension or solution of 0.5 mg/mL or 1.0 mg/mL.
Preparation of intravenous injection formulation: A required amount of test compound was weighed, and dissolved in 0.5 mL of dimethyl sulfoxide to prepare a solution of 4 mg/mL. 0.25 mL of the above solution was added into 0.5 mL of polyethylene glycol 15 hydroxystearate (solutol) and 4.25 mL of physiological saline to obtain a solution of 0.2 mg/mL.
Administration: SD male rats were orally administered (PO) after fasting overnight, and fed 4 hours after administration.
Sample Collection: blood was collected through jugular vein or other suitable vein, and 0.2 mL of blood was collected at each time point. Samples were placed into tubes containing ethylenediamine tetraacetic acid dipotassium salt and kept on ice before centrifugation. Within 1 hour after blood collection, the blood samples were centrifuged at 2-8° C. and 6800 g for 6 minutes and stored at −80° C. The time point for blood collection was 0.083, 0.25, 0.5, 1, 2, 4, 8 and 24 hours after intravenous administration, and 0.25, 0.5, 1, 2, 4, 6, 8 and 24 hours after oral administration.
The intravenous dosage was 1 mg/kg, and the pharmacokinetic parameters for oral administration were standardized to a 1 mg/kg dose.

[2] = Metabolic stability in human liver microsomes; format: in vitro ADME; conditions: pH 7.4, 1.00 μM compound, 0.5 mg/mL protein, read-out: intrinsic clearance, Clint
Experimental: (§1) 1. Experiment purpose: This study aims to determine the metabolic stability of selected compounds from the embodiments of the invention in liver microsomes of humans, dogs, monkeys, rats, and mice using the LC-MS/MS method.
(§2) Test compounds: The test drug is self-made from the example compounds of the present invention; Positive control compound RBN2397 purchased from Shanghai BioChemPartner Biotechnology Co., Ltd.
(§3) Liver microsomes obtained from Xenotech.
(§4) The incubation was carried out at 37° C. in a CO2 incubator. The reactions were terminated by adding 150 μL of cold acetonitrile at different time points (0, 5, 15, 30, and 45 minutes). The 96-well plate was shaken at 600 rpm for 10 minutes, followed by centrifugation at 6000 rpm for 15 minutes. The supernatant (80 μL) was mixed with 140 μL of pure water, and the remaining amount of the compound was determined using LC-MS/MS. The intrinsic clearance (Clint) was calculated using the formula Clint=k/liver microsomes protein concentration, where “k” is the linear regression slope of log compound remaining percentage against incubation time.

[3] = Metabolic stability in dog liver microsomes; format: in vitro ADME; conditions: pH 7.4, 1.00 μM compound, 0.5 mg/mL protein, read-out: intrinsic clearance, Clint
Experimental: as §1, §2, §3, §4

[4] = Metabolic stability in rat liver microsomes; format: in vitro ADME; conditions: pH 7.4, 1.00 μM compound, 0.5 mg/mL protein, read-out: intrinsic clearance, Clint
Experimental: as §1, §2, §3, §4

[5] = Oral gavage, standardized to a 1 mg/kg dose

Row | Structure (SMILES) | IC50 (PARP7) | IC50 (PARP1) | other results
1 | O=C(CC[C@@H]1C[C@@H](c2ccccc2)CN1c1cc(C(F)(F)F)c(=O)[nH]n1)N1CCN(c2ncc(C(F)(F)F)cn2)CC1 [Compound 52] |  |  | IC50 (NCI-H1373 cells): 0.0959 µM
2 | O=C(CC[C@@H]1C[C@@H](Oc2cc(F)cc(F)c2)CN1c1cc(C(F)(F)F)c(=O)[nH]n1)N1CCN(c2ncc(C(F)(F)F)cn2)CC1 [Compound 51] |  |  | IC50 (NCI-H1373 cells): 0.0692 µM
3 | O=C(CC[C@@H]1CCCCN1c1cc(C(F)(F)F)c(=O)[nH]n1)N1CCN(c2ncc(C(F)(F)F)cn2)CC1 [Compound 22] | 0.0046 µM | 0.0316 µM | 
4 | C[C@@H]1C[C@@H](CCC(=O)N2CCN(c3ncc(C(F)(F)F)cn3)CC2)N(c2cc(C(F)(F)F)c(=O)[nH]n2)C1 [Compound 29] | 0.0256 µM | 0.0183 µM | 
5 | O=C(CC[C@@H]1C[C@H](Oc2ccccc2)CN1c1cc(C(F)(F)F)c(=O)[nH]n1)N1CCN(c2ncc(C(F)(F)F)cn2)CC1 [Compound 19] |  |  | F ([1]; Oral gavage): 14.34%; AUC(0-inf) ([1]; Intravenous injection, 1 mg/kg): 397 ng·h/mL; Cmax ([1]; Intravenous injection, 1 mg/kg): 477 ng/mL; clearance ([1]; Intravenous injection, 1 mg/kg): 42.2 mL/min/kg; half-life ([1]; Intravenous injection, 1 mg/kg): 40.8 min; AUC(0-inf) [1, 5]: 60.7 ng·h/mL; Cmax [1, 5]: 15.1 ng/mL
6 | C[C@@H](COCCC(=O)N1CCN(c2ncc(C(F)(F)F)cn2)CC1)Nc1cn[nH]c(=O)c1C(F)(F)F [RBN-2397, reference compound] |  |  | CLint scaled at 1 μM [2]: 88 mL/min/kg; F ([1]; Oral gavage): 3.76%; AUC(0-inf) ([1]; Intravenous injection, 1 mg/kg): 288 ng·h/mL; Cmax ([1]; Intravenous injection, 1 mg/kg): 634 ng/mL; clearance ([1]; Intravenous injection, 1 mg/kg): 58.1 mL/min/kg; half-life ([1]; Intravenous injection, 1 mg/kg): 20.4 min; AUC(0-inf) [1, 5]: 11.5 ng·h/mL; Cmax [1, 5]: 5.55 ng/mL; CLint scaled at 1 μM [3]: 40.8 mL/min/kg; CLint scaled at 1 μM [4]: 144 mL/min/kg
7 | O=C(CC[C@@H]1C[C@@H](Oc2cncnc2)CN1c1cc(C(F)(F)F)c(=O)[nH]n1)N1CCN(c2ncc(C(F)(F)F)cn2)CC1 [Compound 63] |  |  | IC50 (NCI-H1373 cells): 0.0124 µM
8 | O=C([C@@H]1C[C@H](Oc2ccccc2F)CN1c1cc(C(F)(F)F)c(=O)[nH]n1)N1CCN(c2ncc(C(F)(F)F)cn2)CC1 [Compound 67] | 0.043 µM | 12 µM | 
9 | O=C(CC[C@H]1CCCN1c1cc(C(F)(F)F)c(=O)[nH]n1)N1CCN(c2ncc(C(F)(F)F)cn2)CC1 [Compound 18] | 0.0022 µM | 0.0025 µM | 
10 | O=C([C@@H]1C[C@H](Oc2ccccc2)CN1c1cc(C(F)(F)F)c(=O)[nH]n1)N1CCN(c2ncc(C(F)(F)F)cn2)CC1 [Compound 66] | 0.004 µM | 0.427 µM | 
11 | O=C(COC[C@@H]1CCCN1c1cc(C(F)(F)F)c(=O)[nH]n1)N1CCN(c2ncc(C(F)(F)F)cn2)CC1 [Compound 1] |  |  | F ([1]; Oral gavage): 21.97%; AUC(0-inf) ([1]; Intravenous injection, 1 mg/kg): 360 ng·h/mL; Cmax ([1]; Intravenous injection, 1 mg/kg): 720 ng/mL; clearance ([1]; Intravenous injection, 1 mg/kg): 46.9 mL/min/kg; half-life ([1]; Intravenous injection, 1 mg/kg): 34.8 min; AUC(0-inf) [1, 5]: 89.2 ng·h/mL; Cmax [1, 5]: 53.5 ng/mL; IC50 (NCI-H1373 cells): 0.038 µM
12 | CO[C@@H]1C[C@@H](C(=O)N2CCN(c3ncc(C(F)(F)F)cn3)CC2)N(c2cc(C(F)(F)F)c(=O)[nH]n2)C1 [Compound 70] |  |  | IC50 (NCI-H1373 cells): 0.0582 µM
13 | C[C@H]1CC[C@@H](CCC(=O)N2CCN(c3ncc(C(F)(F)F)cn3)CC2)N1c1cc(C(F)(F)F)c(=O)[nH]n1 [Compound 39] | 0.008 µM | 0.06 µM | 
14 | O=C(CC[C@@H]1C[C@H](F)CN1c1cc(C(F)(F)F)c(=O)[nH]n1)N1CCN(c2ncc(C(F)(F)F)cn2)CC1 [Compound 43] | 0.004 µM | 0.004 µM | 
15 | O=C(CC[C@@H]1C[C@@H](O)CN1c1cc(C(F)(F)F)c(=O)[nH]n1)N1CCN(c2ncc(C(F)(F)F)cn2)CC1 [Compound 31] | 0.0044 µM | 0.0259 µM | 
16 | CCO[C@H]1C[C@@H](CCC(=O)N2CCN(c3ncc(C(F)(F)F)cn3)CC2)N(c2cc(C(F)(F)F)c(=O)[nH]n2)C1 [Compound 36] | 0.0038 µM | 0.0144 µM | 
17 | O=C(CC[C@@H]1CC(F)(F)CN1c1cc(C(F)(F)F)c(=O)[nH]n1)N1CCN(c2ncc(C(F)(F)F)cn2)CC1 [Compound 23] | 0.0032 µM | 0.0097 µM | 
18 | CO[C@@H]1C[C@@H](CCC(=O)N2CCN(c3ncc(C(F)(F)F)cn3)CC2)N(c2cc(C(F)(F)F)c(=O)[nH]n2)C1 [Compound 44] | 0.007 µM | 0.018 µM | 
19 | O=C(CC[C@@H]1C[C@H](N2CCOCC2)CN1c1cc(C(F)(F)F)c(=O)[nH]n1)N1CCN(c2ncc(C(F)(F)F)cn2)CC1 [Compound 35] | 0.0043 µM | 0.047 µM | 
20 | C[C@H]1CC(CCC(=O)N2CCN(c3ncc(C(F)(F)F)cn3)CC2)N(c2cc(C(F)(F)F)c(=O)[nH]n2)C1 (stereo partly shown) [Compound 30] | 0.0051 µM | 0.0076 µM | 
21 | N[C@H]1C[C@@H](CCC(=O)N2CCN(c3ncc(C(F)(F)F)cn3)CC2)N(c2cc(C(F)(F)F)c(=O)[nH]n2)C1 [Compound 42] | 0.037 µM | 0.006 µM | 
22 | CCO[C@@H]1C[C@@H](C(=O)N2CCN(c3ncc(C(F)(F)F)cn3)CC2)N(c2cc(C(F)(F)F)c(=O)[nH]n2)C1 [Compound 71] |  |  | IC50 (NCI-H1373 cells): 0.0446 µM
23 | CO[C@H]1C[C@@H](CCC(=O)N2CCN(c3ncc(C(F)(F)F)cn3)CC2)N(c2cc(C(F)(F)F)c(=O)[nH]n2)C1 [Compound 34] | 0.0033 µM | 0.0136 µM | 
24 | O=C(CC[C@@H]1C[C@H](N2CCCC2)CN1c1cc(C(F)(F)F)c(=O)[nH]n1)N1CCN(c2ncc(C(F)(F)F)cn2)CC1 [Compound 38] | 0.005 µM | 0.036 µM | 
25 | O=C(CC[C@@H]1C[C@@H]2CCC[C@@H]2N1c1cc(C(F)(F)F)c(=O)[nH]n1)N1CCN(c2ncc(C(F)(F)F)cn2)CC1 [Compound 24] | 0.0021 µM | 0.0041 µM | 
